In brackets after ≈: the same amount, converted by molar mass.
Experiments:
Assay in all cases: Broth microdilution MIC (Table 2)
Type in all cases: cell-based
[1] = tested on: Acinetobacter baumannii ATCC 19606 (non-MDR); conditions: ATCC19606, read-out: MIC
Procedure: (§1) Each peptide was formulated in PBS buffer prior to testing. Peptides of SEQ ID NO:5 and SEQ ID NO:8 were brought up in 100% DMSO with 0.002% polysorbate-80 at 1.28 mg/mL (40× the highest final test concentration of 32 mcg/mL). Final test concentration of DMSO was 2.5% in the assay at the first dilution for those two compounds.
(§2) Mueller Hinton II broth (MHB II; BD; Lot Nos. 6258541 and 7143896) was used for MIC testing of aerobic organisms. 0.002% polysorbate 80 (P80) was added to the test medium.
(§3) MIC values were determined using a broth microdilution procedure described by CLSI (1, 3). Automated liquid handlers (Multidrop 384, Labsystems, Helsinki, Finland; Biomek 2000 and Biomek FX, Beckman Coulter, Fullerton Calif.) were used to conduct serial dilutions and liquid transfers.
(§4) To prepare the drug mother plates, which would provide the serial peptide dilutions for the replicate daughter plates, the wells of columns 2-12 of standard 96-well microdilution plates (Costar 3795) were filled with 150 μl of the designated diluent for each row of peptide. The test articles and comparator compounds (300 μl at 40× the highest concentration to be tested) were dispensed into the appropriate wells in column 1. The Biomek 2000 was then used to make 2-fold serial dilutions in the mother plates from column 1 through column 11. The wells of Column 12 contained no drug and served as the organism growth control wells for the assay.
(§5) The daughter plates were loaded with 185 μL per well of MHB II using the Multidrop 384. The daughter plates were completed on the Biomek FX instrument which transferred 5 uL of peptide solution from each well of a mother plate to the corresponding well of each daughter plate in a single step. A standardized inoculum of each test organism was prepared per CLSI methods. The inoculum for each organism was dispensed into sterile reservoirs divided by length (Beckman Coulter), and the Biomek 2000 was used to inoculate the plates. Daughter plates were placed on the Biomek 2000 work surface in reverse orientation so that inoculation took place from low to high drug concentration. The plates were then inoculated with 10 μL of the inoculum resulting in a final cell density of approximately 5×10^5 CFU/mL, per well.
(§6) Plates were stacked 3-4 high, covered with a lid on the top plate, placed in plastic bags, and incubated at 35° C. for 16 to 20 hrs. Following incubation, the microplates were removed from the incubator and viewed from the bottom using a plate viewer. […] The MIC was read and recorded as the lowest concentration of peptide that inhibited visible growth of the organism.

[2] = tested on: Acinetobacter baumannii ATCC BAA-1797 (MDR); conditions: ATCCBAA1797, read-out: MIC
Procedure: as §1, §2, §3, §4, §5, §6

[3] = tested on: Enterococcus faecalis ATCC 29212 (VSE; QC); conditions: ATCC29212, read-out: MIC
Procedure: as §1, §2, §3, §4, §5, §6

[4] = tested on: Enterococcus faecalis ATCC 700802 (V583 VRE); conditions: read-out: MIC
Procedure: as §1, §2, §3, §4, §5, §6

[5] = tested on: Escherichia coli ATCC BAA-2471 (NDM-1); conditions: ATCCBAA2471
Procedure: as §1, §2, §3, §4, §5, §6

[6] = tested on: Klebsiella pneumoniae ATCC BAA-1705 (KPC); conditions: ATCCBAA1705
Procedure: as §1, §2, §3, §4, §5, §6

[7] = tested on: Pseudomonas aeruginosa ATCC 27853 (non-MDR; QC); conditions: ATCC27853, read-out: MIC
Procedure: as §1, §2, §3, §4, §5, §6

[8] = tested on: Staphylococcus aureus ATCC 29213 (MSSA; QC); conditions: read-out: MIC
Procedure: as §1, §2, §3, §4, §5, §6

[9] = tested on: Staphylococcus aureus ATCC 43300 (MRSA); conditions: read-out: MIC
Procedure: as §1, §2, §3, §4, §5, §6

[10] = tested on: Streptococcus agalactiae ATCC 13813; conditions: ATCC13813, read-out: MIC
Procedure: as §1, §2, §3, §4, §5, §6

[11] = tested on: Streptococcus pyogenes ATCC 49399; conditions: ATCC49399, read-out: MIC
Procedure: as §1, §2, §3, §4, §5, §6

C[C@H]1COc2c(N3CCN(C)CC3)c(F)cc3c(=O)c(C(=O)O)cn1c23 [Levofloxacin]
MIC [1]: 0.25 µg/mL (≈ 0.692 µM) | MIC [2]: 0.25 µg/mL (≈ 0.692 µM) | MIC [3]: 1 µg/mL (≈ 2.77 µM) | MIC [4]: 0.5 µg/mL (≈ 1.38 µM) | MIC [5]: 64 µg/mL (≈ 177 µM) | MIC [6]: 64 µg/mL (≈ 177 µM) | MIC [7]: 1 µg/mL (≈ 2.77 µM) | MIC [8]: 0.25 µg/mL (≈ 0.692 µM) | MIC [9]: 0.25 µg/mL (≈ 0.692 µM) | MIC [10]: 0.5 µg/mL (≈ 1.38 µM) | MIC [11]: 0.5 µg/mL (≈ 1.38 µM)
